Measurements from patent US6569867B2, “Polyketide derivatives” (Kosan Biosciences, Inc., priority 1999, dated 2003).
Values joined by “and” are separate entries in the source; they are usually repeats but may differ in a detail not shown here. Identical values can stand only once. Like-named read-outs stand apart in the source and are kept apart here.

Experiments:
[1] = system: SH-SY5Y human neuroblastoma cells; assay: Nerve growth (neurite length) assay; type: cell-based
Experimental: Table 9 summarizes the results of nerve growth as using SH-SY5Y human neuroblastoma cells according to Gold et al., Exp Neuro, 147(2): 269-87 (1997) which is incorporated herein by reference. The assay measures the mean neurite length in […] that were induced at 0.1 nM and 10 nM of the compound of interested after 96 or 168 hours.

Human 3A4 P-450 = molecular target: T1, Human 3A4 P-450 (Homo sapiens, UniProt P08684); assay: P450 stability assay with 3A4 P-450 supersomes; type: in vitro ADME; settings: 20 μM FK species, 200 pmole P-450/mL, 37° C.
T1 construct: purchased Gentest Corporation (Woburn, Mass.) P207
Experimental: A mixture containing FK species and a NADPH regenerating system was pre-incubated at 37° C. for 10 minutes before the reaction was commenced by the addition of the P-450 supersomes. The final concentrations of the components were: 100 mM potassium phosphate, pH 7.4; 3.3 mM MgCl2; 3.3 mM glucose-6-phosphate; 1.3 mM NADP; 0.4 U/mL glucose-6-phosphate dehydrogenase; 200 pmole P-450/mL; and 20 μM FK species. Control reactions contained “mock” supersomes without 3A4 P-450 activity. Human 3A4 P-450+Reductase supersomes (cat #P207) and vector control “mock” supersomes without 3A4P-450 (cat #P201) were obtained from Gentest Corporation (Woburn, Mass.).
Following addition of supersomes or mock supersomes, reactions were terminated at 0 minutes (immediately upon addition of P-450) and 30 minutes by addition of acetonitrile containing 0.1% acetic acid to 20% final acetonitrile concentration, followed by freezing immediately on dry ice. For reactions containing the 13-desmethoxy-13-methyl-32-(2-hydroxyethylindolyl)-FK analog, an equal volume of MeOH was added following addition of acetonitrile and the samples were immediately frozen on dry ice. The samples were clarified by centrifugation at 13,000 rpm for 5 minutes at 4° C. in a micro centrifuge prior to HPLC analysis.
The following HPLC program was employed: Column =MetaChem 0.46×15 cm intersil C18 column (5 μm); Solvent A=0.1% HOAc in water; Solvent B=0.1 % HOAc in acetonitrile. Detection=UV (210 nm) and ELSD. Gradient: Equilibration with 20% B; injection (up to 1 ml), hold at 20% B for 5 minutes; linear gradient to 50% B in 5 minutes; linear gradient to 100% B in 20 minutes; to 20% B in 1 minute; hold at 20% B for 10 minutes to equilibrate.
There was no change in peak area after 30 minutes when the FK analogs were incubated with mock supersomes.

FKBP-12 = molecular target: T2, FKBP-12 (Homo sapiens, UniProt P62942); assay: FKBP-12 binding assay ([3H]FK-506 competition)
T2 construct: purchased Sigma; host or cells: E. coli
Experimental: Calcineurin (“>95% pure by SDS/PAGE”) was obtained from Calbiochem. Neutravidin® coated strip plates, pre-blocked with SuperBlock® were obtained from Pierce. […] Synthetic RII peptide (^+[…]^-) was obtained from Peptides International (Louisville, […].com). […] ATP, cAMP, the catalytic subunit of protein kinase A, bovine brain calmodulin and human FKBP, expressed in E. coli were obtained from Sigma. […] The mixture was incubated for 2 hours at 0° C., the solution was aspirated from the wells, and each well was quickly washed with 300 uL of ice cold PBS-tween. Wells were broken apart, placed in scintillation vials with 10 mL of Scintiverse BD and bound radioactivity was quantitated by scintillation counting. […] to calculate the Kd.

calcineurin = calcineurin (Bos taurus, UniProt P48452+P62942+P63099); assay: Calcineurin phosphatase inhibition assay (FKBP-compound complex); type: biochemical; settings: 15 nM calcineurin, 30 nM calmodulin, 1 uM phospho-RII peptide, 30° C.
Experimental: The catalytic subunit of protein kinase A was used to transfer the labeled phosphate from [γ-^32P]ATP to […] of the RII peptide. […] Fractions were collected and monitored by scintillation counting. […] The columns were prepared by resuspending the resin in water such that there was one volume of water above each volume of settled resin. The slurry (1 mL) was then pipetted into each column, followed by 10 mL of water. The bed volume was verified, then each column was washed with 1 mL 1 N NaOH, 2 mL 1 N HCl, and 4 mL water. Quenched reaction mixtures were applied to the columns, washed twice with 750 uL of water and the eluate was collected directly into scintillation vials. Scintiverse BD (15 mL) was added to each vial, and ^32PO4 was quantitated by scintillation counting. […] Following a 30 minute preincubation, reactions were initiated by addition of the phospho-RII peptide substrate to 1 uM and incubated at 30° C. Aliquots were removed at 3 and 35 minutes, quenched, and PO4 release was measured as described above.

[2] = cited from earlier work

| Molecule | Neurite Length at 0.1 nM 96 h [1] | Neurite Length at 0.1 nM 168 h [1] | P450 % Stability (at 30 min) (Human 3A4 P-450) | Kd (FKBP-12) | also measured |
| --- | --- | --- | --- | --- | --- |
| 18-ene-20-oxa-13-desmethoxy-13-methyl-FK-520 | 144 µm | 184 µm |  |  | Neurite Length at 10 nM 96 h [1]: 104 µm; Neurite Length at 10 nM 168 h [1]: 135 µm |
| 32-[1-(2-Hydroxyethyl)-indol-5-yl]-13-desmethoxy-FK-520 |  |  | 72% and 77% |  | Kd (FKBP-12; competition with 0.5 μM [3H]FK-506, 2 hours at 0° C., Kd of [3H]FK-506 assumed to be 0.4 nM): 16.3 nM and 10.4 nM; Ki (calcineurin): < 15 nM and 22 nM |
| CC[C@@H]1/C=C(\C)C(O)[C@H](C)C[C@H](OC)[C@H]2O[C@@](O)(C(=O)C(=O)N3CCCC[C@H]3C(=O)O[C@H](/C(C)=C/[C@@H]3CC[C@@H](O)[C@H](OC)C3)[C@H](C)[C@@H](O)CC1=O)[C@H](C)C[C@@H]2C (stereo partly drawn) [13-desmethoxy-13-methyl-18-hydroxyl-FK-520] | 168 µm | 191 µm |  | ~1 nM | Neurite Length at 10 nM 96 h [1]: 132 µm; Neurite Length at 10 nM 168 h [1]: 165 µm |
| CC[C@@H]1/C=C(\C)C[C@H](C)C[C@H](OC)[C@H]2O[C@@](O)(C(=O)C(=O)N3CCCC[C@H]3C(=O)O[C@H](/C(C)=C/[C@@H]3CC[C@@H](O)[C@H](OC)C3)[C@H](C)[C@@H](O)CC1=O)[C@H](C)C[C@@H]2C [13-desmethoxy-13-methyl-FK-520] |  |  | 26% | 1.6 nM |  |
| CC[C@@H]1/C=C(\C)C[C@H](C)C[C@H](OC)[C@@H]2CC[C@@H](C)[C@@](O)(O2)C(=O)C(=O)N2CCCC[C@H]2C(=O)O[C@H](/C(C)=C/[C@@H]2CC[C@@H](O)[C@H](OC)C2)[C@H](C)[C@@H](O)CC1=O [13-desmethoxy-FK-520] |  |  | 35% | 0.4 nM |  |
| C=CC[C@@H]1/C=C(\C)C[C@H](C)C[C@H](OC)[C@H]2O[C@@](O)(C(=O)C(=O)N3CCCC[C@H]3C(=O)O[C@H](/C(C)=C/[C@@H]3CC[C@@H](O)[C@H](OC)C3)[C@H](C)[C@@H](O)CC1=O)[C@H](C)C[C@@H]2OC.O [FK-506, tacrolimus] |  |  |  |  | excreted unchanged in urine ([2]; in vivo): less than 1%; half-life for distribution ([2]; in vivo): 54 min; bioavailability with co-administration of ketoconazole ([2]; ketoconazole, a drug that inhibits P450 3A): doubles; mean bioavailability of the oral dosage form ([2]; oral, range 5 to 65%): 27% |
| CC[C@@H]1/C=C(\C)C[C@H](C)C[C@H](OC)[C@H]2O[C@@](O)(C(=O)C(=O)N3CCCC[C@H]3C(=O)O[C@H](/C(C)=C/[C@@H]3CC[C@@H](O)[C@H](OC)C3)[C@H](C)[C@@H](O)CC1=O)[C@H](C)C[C@@H]2OC [FK-520, ascomycin, reference compound] |  |  | 46% | 0.4 nM |  |
| Nerve Growth Factor: protein neurotrophic molecule used as comparator in the neurite length assay | 143 µm | 169 µm |  |  |  |
